Experimental data published in EP4606801A1, “FUSED HETEROCYCLIC COMPOUND AND USE THEREOF” (Chengdu Zenitar Biomedical Technology Co., Ltd., priority 2022, dated 2024).

Assays:
breast cancer MDA-MB-436 = assay: In-vivo pharmacodynamic study on subcutaneous xenograft tumor model of breast cancer MDA-MB-436; design: species or system NOD/SCID mice; settings: for RTV / Tumor volume T/C% / Tumor weight (g) X±SD / Body weight (g) X±SD End / Tumor volume (mm^3) X±SD End: 24 days
Protocol: Strain: NOD/SCID; Grade: SPF; Source: Beijing Vitron River Bio-technology Co., Ltd.
The cells were washed 3 times with pre-cooled PBS, centrifuged at 300 g for 10 min, collected, re-suspended in PBS, and counted with a blood cell counting chamber, and the cell concentration was adjusted. After cell collection, the cell suspension was pre-cooled on ice. 100 µL of the cell suspension was administered via subcutaneous injection into the dorsal flank of the mice, and the grouped treatment was started when the tumor volume reached 200-300 mm^3.
General observation: Observation of animals: all live experimental animals to be observed; Observation time: twice a day; Observation items: including but not limited to general performance, behavioral status, eyes, mouth, nose and mouth, ears, hair, stool, urine, genitalia and other toxic symptoms; If abnormalities are observed, provide a detailed description.
Animal assay: all viable experimental animals scheduled for assay; Assay time: All animals were weighed before the modeling for test grouping. After modeling, the mice were weighed once every 2 days, and the weight change of the mice was recorded in real time. Effective criteria: tumor volume (TV), relative tumor volume (RTV) and relative tumor growth rate of subcutaneously implanted tumor model. […] The calculation formula of tumor volume (TV) was: TV (mm^3) = a×b2×0.5, where a and b were the long diameter and short diameter, respectively.
The evaluation index for anti-tumor activity was the relative tumor growth rate T/C (%), and the calculation formula was as follows: T/C(%) = TRTV/CRTV × 100%; [formula]
Where, TRTV is relative tumor volume of the treatment group; CRTV is relative tumor volume of the negative control group. Therapeutic evaluation criteria: T/C (%)> 60 is considered ineffective; T/C (%) ≤ 60, and P < 0.05 (through statistical analysis) is considered effective. Measurement of tumor weight and tumor inhibition rate (%): At the end of the treatment period, the animals were euthanize, tumor masses dissected and isolated, tumors weighed, and photographs took. The tumor inhibition rate (%) was calculated by the formula below: [formula]
All raw data within the facility were collected manually according to the experimental scheme and the relevant guidelines of the research institution, or gathered by using a data acquisition system. Manually collected data can be transcribed into software such as Excel for analysis and reporting. The data from each group were quantitative, and the experimental data for each group of animals in the tables were expressed as mean ± standard deviation (Mean ± SD). In the figures, the experimental data ware described as mean ± standard error of the mean (Mean ± SEM). Statistical analysis, including t-tests and survival analysis, was performed by using the software such as EXCEL and GraphPad Prism.
After 24 days of administration, the tumor-bearing mice were anesthetized and euthanized. The tumor tissues were dissected, weighed, and photographed, and the tumor inhibition rate was calculated.

gastric cancer PDX model = assay: In-vivo pharmacodynamic study on PDX gastric cancer mice model; settings: Fig. 3
Protocol: Experimental procedure: Tumor tissues from gastric cancer patients were used to establish a stable passaged tumor-bearing mice model. In this study, tumor fragments from mice that had been stably passaged three times were used for subcutaneous inoculation. Eight groups were divided for the experiment, with 6 mice in each group. The negative control group (Control) received normal saline at 0.2 mL per mice per administration, given orally once per day; the carboplatin control group (Carboplatin, Car) received 20 mg/kg at 0.2 mL per mice per administration, administered via intraperitoneal injection once every 7 days.

[2H]C([2H])([2H])C([2H])([2H])c1cc2ncc(CN3CC=C(c4ccc(C(=O)NC)nc4)CC3)cc2[nH]c1=O [Compound 6, 1'-((7-(ethyl-d5)-6-oxo-5,6-dihydro-1,5-naphthyridin-3-yl)methyl)-N-methyl-1',2',3',6'-tetrahy dro-[3,4'-bipyridine]-6-carboxamide]
RTV (breast cancer MDA-MB-436; 0.03 mg/kg orally once daily): 2.7
Tumor volume T/C% (breast cancer MDA-MB-436; 0.03 mg/kg orally once daily): 40.8%
Tumor weight (g) X±SD (breast cancer MDA-MB-436; 0.03 mg/kg orally once daily): 1.09 ± 0.29 g
Body weight (g) X±SD End (breast cancer MDA-MB-436; 0.03 mg/kg orally once daily): 21.6 ± 0.7 g
Tumor volume (mm^3) X±SD End (breast cancer MDA-MB-436; 0.03 mg/kg orally once daily): 739.4±308.7 mm^3
Body weight (g) X±SD Start (breast cancer MDA-MB-436; 0.03 mg/kg orally once daily): 22.6 ± 0.7 g
Tumor volume (mm^3) X±SD Start (breast cancer MDA-MB-436; 0.03 mg/kg orally once daily): 275.0±68.1 mm^3
RTV (breast cancer MDA-MB-436; 0.1 mg/kg orally once daily): 0.8
Tumor volume T/C% (breast cancer MDA-MB-436; 0.1 mg/kg orally once daily): 12.6%
Tumor weight (g) X±SD (breast cancer MDA-MB-436; 0.1 mg/kg orally once daily): 0.29 ± 0.09 g
Body weight (g) X±SD End (breast cancer MDA-MB-436; 0.1 mg/kg orally once daily): 21.6 ± 0.7 g
Tumor volume (mm^3) X±SD End (breast cancer MDA-MB-436; 0.1 mg/kg orally once daily): 228.0±75.9 mm^3
Body weight (g) X±SD Start (breast cancer MDA-MB-436; 0.1 mg/kg orally once daily): 22.3 ± 1.0 g
Tumor volume (mm^3) X±SD Start (breast cancer MDA-MB-436; 0.1 mg/kg orally once daily): 274.7±73.8 mm^3
RTV (breast cancer MDA-MB-436; 0.3 mg/kg orally once daily): 0.3
Tumor volume T/C% (breast cancer MDA-MB-436; 0.3 mg/kg orally once daily): 3.8%
Tumor weight (g) X±SD (breast cancer MDA-MB-436; 0.3 mg/kg orally once daily): 0.09 ± 0.08 g
complete tumor regression (mice out of 6) (breast cancer MDA-MB-436; 0.3 mg/kg orally once daily, at the end of treatment): 2/6
Body weight (g) X±SD End (breast cancer MDA-MB-436; 0.3 mg/kg orally once daily): 22.0 ± 0.9 g
Tumor volume (mm^3) X±SD End (breast cancer MDA-MB-436; 0.3 mg/kg orally once daily): 71.0±62.5 mm^3
Body weight (g) X±SD Start (breast cancer MDA-MB-436; 0.3 mg/kg orally once daily): 22.3 ± 0.8 g
Tumor volume (mm^3) X±SD Start (breast cancer MDA-MB-436; 0.3 mg/kg orally once daily): 281.9±67.4 mm^3
tumor growth in gastric cancer PDX model (gastric cancer PDX model; 3 mg/kg p.o once per day combined with carboplatin 20 mg/kg i.p once per 7 days): significantly inhibit tumor growth
inhibitory effect on the gastric cancer PDX model (gastric cancer PDX model; 0.3, 1, 3 mg/kg p.o once per day combined with carboplatin 20 mg/kg i.p once per 7 days): dose-dependent inhibitory effect
